Drawing on patent US12331040B2 (Karyopharm Therapeutics Inc., priority 2013, dated 2025), this text covers IC50 for 14 compounds.

Holding throughout (test): MTT cell proliferation assay
What all share (format): cell-based
Background: Formazan colour is commonly taken as a measure of viable cells.

The test system of one test is MDA-MB-231 cells. The conditions noted are these: Homo sapiens; MDA-MB-231 cell line; read-out: MTT Assay IC50, MDA-MB-231. The procedure:
The MTT cell proliferation assay was used to study the cytotoxic properties of the compounds. The assay was performed according to the method described by Roche Molecular Biochemicals, with minor modifications. The assay is based on the cleavage of the tetrazolium salt, MTT, in the presence of an electron-coupling reagent. The water-insoluble formazan salt produced must be solubilized in an additional step. Cells grown in a 96-well tissue culture plate were incubated with the MTT solution for approximately 4 hours. After this incubation period, a water-insoluble formazan dye formed. After solubilization, the formazan dye was quantitated using a scanning multi-well spectrophotometer (ELISA reader). […] The cells were seeded at 5,000-10,000 cells in each well of 96-well plate in 100 μL of fresh culture medium and were allowed to attach overnight. The stock solutions of the compounds were diluted in 100 μL cell culture medium to obtain eight concentrations of each test compound, ranging from 1 nM to 30 μM. […] All optical densities were measured at 490 nm using a Vmax Kinetic Microplate Reader (Molecular Devices). In most cases, the assay was performed in duplicate and the results were presented as a mean percent inhibition to the negative control±SE. The following formula was used to calculate the percent of inhibition: Inhibition (%)=(1−(ODo/OD))×100.
The M24 cell line is derived from human melanoma cells. The U2OS cell line is a human osteosarcoma cell line expressing wild type p53 and Rb, but lacking p16. The MM1S cell line is a multiple myeloma cell line; the parent cell line, MM.1, was established from peripheral blood of a multiple myeloma patient who had become resistant to steroid-based therapy. The RPMI8226 cell line is derived from human B lymphocyte cells. NHDF cells are normal human dermal fibroblast cells. The MRC-5 cell line is derived from normal lung tissue of a fetus. The PC3 cell line is a human prostate cancer cell line. The DU-145 cell line is a human prostate cancer cell line. The MDA-MB-231 cell line is a human breast adenocarcinoma cell line. The MDA-MB-468 cell line is a human breast carcinoma cell line. HL-60 cells are human promyelocytic leukemia cells. Hep G2 cells are human hepatocellular carcinoma cells. HEP 3B cells are human hepatocellular carcinoma cells. The DLD-1 cell line is a colorectal adenocarcinoma cell line. The HCT-15 cell line is a human colon carcinoma cell line. The Colo-205 cell line is derived from a human adenocarcinoma of the colon. The LoVo cell line is a human colon adenocarcinoma cell line.

The test system of another test is MS751 cells. The following applies: Homo sapiens, MS751, MS751 cells, approximately 64-72 hours incubation. The procedure, abridged:
(§1)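 Cytotoxicity was measured by MTT: OD490 of the solubilized formazan after roughly 4 h with MTT reagent, reported as mean percent inhibition relative to the negative control. Test compounds covered eight concentrations between 1 nM and 30 μM, added to 5,000–10,000 cells per well that had attached overnight.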

A further test relates to Z138 cells. The following applies: Homo sapiens, Z-138, Z138 cells, approximately 64-72 hours incubation. The procedure, abridged:
as §1

In another test the test system is 3T3 cells. The following applies: Mus musculus, NIH3T3, approximately 64-72 hours incubation. The method in brief:
as §1

Where [1] appears, read: read-out: MTT Assay IC50 MS-751.
[2] abbreviates: read-out: MTT Assay IC50, MS-751.
[3] abbreviates: read-out: MTT Assay IC50, Z-138.

Structures are written as SMILES. Read-outs that look alike come from different tables or passages of the source. Some results are limits rather than exact numbers.

In general, IC50 refers to the concentration at which inhibition is half-maximal. As for `CC1(C)COCCN1C(=O)c1ccc(-c2cc(C(F)(F)F)c3oc(CNC(=O)/C=C/c4ccc(N)nc4)cc3c2)cc1` [Compound 517, (E)-3-(6-aminopyridin-3-yl)-N-((5-(4-(3,3-dimethylmorpholine-4-carbonyl)phenyl)-7-(trifluoromethyl)benzofuran-2-yl)methyl)acrylamide], the IC50 was 100 to 5000 nM in the test on MDA-MB-231 cells, 100 to 5000 nM in the test with MS751 cells (setting [1]), 100 to 5000 nM in the test with Z138 cells (read-out: MTT Assay IC50 Z-138) and above 10000 nM in the test with 3T3 cells (read-out: MTT Assay IC50 3T3).
Turning to `Nc1ccc(/C=C/C(=O)NCc2cc3cc(-c4ccc(C(=O)N5CCOCC5)cn4)cc(C(F)(F)F)c3o2)cn1` [Compound 521, (E)-3-(6-aminopyridin-3-yl)-N-((5-(5-(morpholine-4-carbonyl)pyridin-2-yl)-7-(trifluoromethyl)benzofuran-2-yl)methyl)acrylamide], the IC50 in the test on MDA-MB-231 cells is 100 to 5000 nM; with MS751 cells (setting [1]), below 100 nM; with Z138 cells (read-out: MTT Assay IC50 Z-138), below 100 nM; in the test with 3T3 cells (read-out: MTT Assay IC50 3T3) it was above 10000 nM.
In the case of `Nc1ccc(/C=C/C(=O)NCc2cc3cc(-c4ccc(C(=O)N5CCC[C@H]5C(F)(F)F)cn4)cc(C(F)(F)F)c3o2)cn1` [Compound 622, (S,E)-3-(6-aminopyridin-3-yl)-N-((7-(trifluoromethyl)-5-(5-(2-(trifluoromethyl)pyrrolidine-1-carbonyl)pyridin-2-yl)benzofuran-2-yl)methyl)acrylamide], the IC50 was above 10000 nM with MS751 cells (setting [1]), 5000 to 10000 nM in the test with Z138 cells (read-out: MTT Assay IC50 Z-138) and above 10000 nM with 3T3 cells (read-out: MTT Assay IC50 3T3).
Regarding `O=C(/C=C/c1cccnc1)NCc1cc2cc(-c3ccc(C(=O)N4CCC(F)(F)CC4)cc3)cc(-c3ccncc3)c2o1` [Compound 723, (E)-N-((5-(4-(4,4-difluoropiperidine-1-carbonyl)phenyl)-7-(pyridin-4-yl)benzofuran-2-yl)methyl)-3-(pyridin-3-yl)acrylamide], the half-inhibitory concentration (IC50) in the test with MS751 cells (setting [2]) was below 100 nM; in the test with Z138 cells (setting [3]), below 100 nM; with 3T3 cells (read-out: MTT Assay IC50, 3T3), below 100 nM.
`Nc1ccc(/C=C/C(=O)NCCc2cc3cc(-c4ccc(C(=O)N5CCOCC5)cc4)cc(Cl)c3o2)cn1` [Compound 532, (E)-3-(6-aminopyridin-3-yl)-N-(2-(7-chloro-5-(4-(morpholine-4-carbonyl)phenyl)benzofuran-2-yl)ethyl)acrylamide]: the IC50 with MS751 cells (setting [1]), in the test with Z138 cells (read-out: MTT Assay IC50 Z-138) and in the test with 3T3 cells (read-out: MTT Assay IC50 3T3) was below 100 nM in each case.
As for `Nc1ccc(/C=C/C(=O)NCc2cc3cc(-c4ccc(C(=O)N5CCCNCC5)cc4)cc(C(F)(F)F)c3o2)cn1` [Compound 573, (E)-N-((5-(4-(1,4-diazepane-1-carbonyl)phenyl)-7-(trifluoromethyl)benzofuran-2-yl)methyl)-3-(6-aminopyridin-3-yl)acrylamide], the IC50 in the test on MS751 cells (setting [1]) is below 100 nM; with Z138 cells (read-out: MTT Assay IC50 Z-138) it was below 100 nM; with 3T3 cells (read-out: MTT Assay IC50 3T3), above 10000 nM.
Take `COc1cc(-c2ccc(C(=O)N3CCOCC3)cn2)cc2cc(CNC(=O)/C=C/c3ccc(N)nc3)oc12` [Compound 640, (E)-3-(6-aminopyridin-3-yl)-N-((7-methoxy-5-(5-(morpholine-4-carbonyl)pyridin-2-yl)benzofuran-2-yl)methyl)acrylamide]: the IC50 in the test with MS751 cells (setting [1]) is below 100 nM; with Z138 cells (read-out: MTT Assay IC50 Z-138) it was below 100 nM; with 3T3 cells (read-out: MTT Assay IC50 3T3) it was above 10000 nM.
As for `CN1CCN(C(=O)c2ccc(-c3cc(Cl)c4oc(CNC(=O)/C=C/c5ccc(N)nc5)cc4c3)nc2)CC1` [Compound 584, (E)-3-(6-aminopyridin-3-yl)-N-((7-chloro-5-(5-(4-methylpiperazine-1-carbonyl)pyridin-2-yl)benzofuran-2-yl)methyl)acrylamide], the IC50 is below 100 nM in the test with MS751 cells (setting [1]), below 100 nM with Z138 cells (read-out: MTT Assay IC50 Z-138) and 5000 to 10000 nM with 3T3 cells (read-out: MTT Assay IC50 3T3).
As to `Nc1ccc(/C=C/C(=O)NCc2cc3cc(-c4ncc(C(=O)N5CCC(F)(F)CC5)cn4)cc(C(F)(F)F)c3o2)cn1` [Compound 652, (E)-3-(6-aminopyridin-3-yl)-N-((5-(5-(4,4-difluoropiperidine-1-carbonyl)pyrimidin-2-yl)-7-(trifluoromethyl)benzofuran-2-yl)methyl)acrylamide], the IC50 with MS751 cells (setting [1]) was 100 to 5000 nM; in the test with Z138 cells (read-out: MTT Assay IC50 Z-138), 100 to 5000 nM; in the test with 3T3 cells (read-out: MTT Assay IC50 3T3) it was above 10000 nM.
In the case of `O=C(/C=C/c1cccnc1)NCc1cc2cc(-c3ccc(C(=O)N4CCOCC4)cc3)cc(Cl)c2o1` [Compound 538, (E)-N-((7-chloro-5-(4-(morpholine-4-carbonyl)phenyl)benzofuran-2-yl)methyl)-3-(pyridin-3-yl)acrylamide], the IC50 with MS751 cells (setting [1]), with Z138 cells (read-out: MTT Assay IC50 Z-138) and in the test on 3T3 cells (read-out: MTT Assay IC50 3T3) was 100 to 5000 nM in each case.
For the compound `Nc1ccc(/C=C/C(=O)NCc2cc3cc(-c4ccc(F)c(C(=O)N5CCOCC5)n4)cc(C(F)(F)F)c3o2)cn1` [Compound 579, (E)-3-(6-aminopyridin-3-yl)-N-((5-(5-fluoro-6-(morpholine-4-carbonyl)pyridin-2-yl)-7-(trifluoromethyl)benzofuran-2-yl)methyl)acrylamide], the values for the half-maximal inhibitory concentration (IC50) in the test on MS751 cells (setting [1]), with Z138 cells (read-out: MTT Assay IC50 Z-138) and with 3T3 cells (read-out: MTT Assay IC50 3T3) were below 100 nM, below 100 nM and above 10000 nM, respectively.
With `Nc1cc2ccc(/C=C/C(=O)NCc3cc4cc(-c5ccc(C(=O)N6CCC(F)(F)CC6)cn5)cc(C(F)(F)F)c4o3)cc2cn1` [Compound 670, (E)-3-(3-aminoisoquinolin-7-yl)-N-((5-(5-(4,4-difluoropiperidine-1-carbonyl)pyridin-2-yl)-7-(trifluoromethyl)benzofuran-2-yl)methyl)acrylamide], the IC50 is above 10000 nM with MS751 cells (setting [2]); above 10000 nM in the test with Z138 cells (setting [3]); above 10000 nM with 3T3 cells (read-out: MTT Assay IC50, 3T3).
`COc1cc(-c2ccc(S(=O)(=O)N3CCOCC3)cc2)cc2cc(CNC(=O)/C=C/c3ccc(N)nc3)oc12` [Compound 635, (E)-3-(6-aminopyridin-3-yl)-N-((7-methoxy-5-(4-(morpholinosulfonyl)phenyl)benzofuran-2-yl)methyl)acrylamide]: the IC50 is below 100 nM in the test with MS751 cells (setting [1]), below 100 nM in the test with Z138 cells (read-out: MTT Assay IC50 Z-138) and 100 to 5000 nM with 3T3 cells (read-out: MTT Assay IC50 3T3).
On to `CC1(F)CCN(C(=O)c2ccc(-c3cc(C(F)(F)F)c4oc(CNC(=O)/C=C\c5ccc(N)nc5)cc4c3)nc2)C1` (single isomer, unassigned) [Compound 656, (Z)-3-(6-aminopyridin-3-yl)-N-((5-(5-(3-fluoro-3-methylpyrrolidine-1-carbonyl)pyridin-2-yl)-7-(trifluoromethyl)benzofuran-2-yl)methyl)acrylamide], for which the IC50 in the test with MS751 cells (setting [1]) was 5000 to 10000 nM; in the test with Z138 cells (read-out: MTT Assay IC50 Z-138), 100 to 5000 nM; in the test with 3T3 cells (read-out: MTT Assay IC50 3T3), above 10000 nM.
